Columns and labels:
[1] = system: Mycobacterium tuberculosis Erdman (autoluminescent); assay: total FIC50 (Loewe) at 50% inhibition, three-drug combination (log2); higher = more antagonistic
Description: (§1)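 DiaMOND equipotent three-drug combination dose responses (10 doses, 1.5- or 2-fold spacing, centred on IC90) against autoluminescent M. tuberculosis Erdman in 8 in vitro models. Read-out is OD600, or luminescence for the intracellular and dormancy models, normalised to untreated wells. Hill-fit Einf, AUC25 and GRinf are potency metrics; FIC50 and FIC90 are total Loewe fractional inhibitory concentrations as log2 (negative = synergy).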

[2] = system: Mycobacterium tuberculosis Erdman (autoluminescent); assay: total FIC90 (Loewe) at 90% inhibition, three-drug combination (log2); higher = more antagonistic
Description: as §1

[3] = system: Mycobacterium tuberculosis Erdman (autoluminescent); assay: Einf, fitted maximum growth inhibition of three-drug combination (fraction); higher = stronger maximal inhibition
Description: as §1

[4] = system: Mycobacterium tuberculosis Erdman (autoluminescent); assay: AUC25, normalised area under dose response up to IC25 (three-drug combination) (fraction (0-1)); higher = more potent at low dose
Description: as §1

[5] = system: Mycobacterium tuberculosis Erdman (autoluminescent); assay: GRinf, maximum normalised growth rate inhibition (three-drug combination) (unitless (-1 to 1)); higher = less effect (negative = killing)
Description: as §1

CC(=O)NC[C@H]1CN(c2ccc(N3CCOCC3)c(F)c2)C(=O)O1 [linezolid] + COc1c(N2C[C@@H]3CCCN[C@@H]3C2)c(F)cc2c(=O)c(C(=O)O)cn(C3CC3)c12 [moxifloxacin] + O=[N+]([O-])c1cn2c(n1)OC[C@@H](OCc1ccc(OC(F)(F)F)cc1)C2 [pretomanid]
Conditions | AUC25, [4] | Einf, [3] | GRinf, [5] | total FIC50, [1] | total FIC90, [2]
in vitro model: acidic pH 5.7, time point: constant (~7 days, model-specific) | 0.113 | 0.883 | -0.748 | 0.776 | –
in vitro model: acidic pH 5.7, time point: terminal (~4-5 doublings, model-specific) | 0.0579 | 0.945 | -0.404 | 1.08 | 0.694
in vitro model: intracellular J774, time point: constant = terminal | – | 0.954 | -0.659 | – | 1.38

Conditions | AUC25, [4] | Einf, [3] | GRinf, [5] | total FIC50, [1] | total FIC90, [2]
in vitro model: butyrate, time point: constant (~7 days, model-specific) | 0.0971 | 0.916 | 0.0148 | 0.594 | 0.801
in vitro model: butyrate, time point: terminal (~4-5 doublings, model-specific) | 0.0695 | 0.953 | 0.0166 | 0.499 | 0.736
in vitro model: cholesterol 0.05 mM, time point: constant (~7 days, model-specific) | 0.14 | 0.692 | -0.183 | 0.0017 | –
in vitro model: cholesterol 0.05 mM, time point: terminal (~4-5 doublings, model-specific) | 0.134 | 0.908 | -0.206 | 0.534 | 0.307
in vitro model: cholesterol-high 0.2 mM, time point: constant (~7 days, model-specific) | 0.121 | 0.923 | -0.45 | 0.187 | 1.91
in vitro model: cholesterol-high 0.2 mM, time point: terminal (~4-5 doublings, model-specific) | 0.117 | 0.989 | -0.722 | 0.117 | 0.839
in vitro model: dormancy (butyrate + nitrate, low O2), time point: constant (~7 days, model-specific) | 0.0437 | 0.879 | 0.219 | 0.988 | 0.456
in vitro model: dormancy (butyrate + nitrate, low O2), time point: terminal (~4-5 doublings, model-specific) | 0.0489 | 0.979 | -0.165 | 1.01 | 0.983
in vitro model: standard 7H9 glycerol, time point: constant = terminal | 0.0706 | 0.962 | -0.151 | 0.466 | 0.766
in vitro model: valerate, time point: constant (~7 days, model-specific) | 0.138 | 0.861 | -0.229 | -0.643 | –
in vitro model: valerate, time point: terminal (~4-5 doublings, model-specific) | 0.0994 | 0.918 | -0.0505 | -0.495 | 0.791

CC(=O)NC[C@H]1CN(c2ccc(N3CCOCC3)c(F)c2)C(=O)O1 [linezolid] + NC(=O)c1cnccn1 [pyrazinamide] + CO[C@H]1/C=C/O[C@@]2(C)Oc3c(C)c(O)c4c(O)c(c(/C=N/N5CCN(C6CCCC6)CC5)c(O)c4c3C2=O)NC(=O)/C(C)=C\C=C\[C@H](C)[C@H](O)[C@@H](C)[C@@H](O)[C@@H](C)[C@H](OC(C)=O)[C@@H]1C [rifapentine]
Conditions | AUC25, [4] | Einf, [3] | GRinf, [5] | total FIC50, [1] | total FIC90, [2]
in vitro model: acidic pH 5.7, time point: constant (~7 days, model-specific) | 0.105 | 0.91 | -0.206 | 0.0539 | –
in vitro model: acidic pH 5.7, time point: terminal (~4-5 doublings, model-specific) | 0.0872 | 0.992 | -0.258 | -0.0159 | –
in vitro model: intracellular J774, time point: constant = terminal | – | 0.947 | -0.174 | – | -0.0473

Conditions | AUC25, [4] | Einf, [3] | GRinf, [5] | total FIC50, [1] | total FIC90, [2]
in vitro model: butyrate, time point: constant (~7 days, model-specific) | 0.0966 | 0.892 | 0.08 | -0.0866 | –
in vitro model: butyrate, time point: terminal (~4-5 doublings, model-specific) | 0.0673 | 0.94 | 0.0873 | 0.038 | -0.132
in vitro model: cholesterol 0.05 mM, time point: constant (~7 days, model-specific) | 0.143 | 0.758 | -0.43 | – | –
in vitro model: cholesterol 0.05 mM, time point: terminal (~4-5 doublings, model-specific) | 0.139 | 0.938 | -0.446 | 0.219 | –
in vitro model: cholesterol-high 0.2 mM, time point: constant (~7 days, model-specific) | 0.112 | 0.952 | -0.497 | 0.301 | –
in vitro model: cholesterol-high 0.2 mM, time point: terminal (~4-5 doublings, model-specific) | 0.0909 | 1 | -0.945 | 0.319 | -0.0261
in vitro model: dormancy (butyrate + nitrate, low O2), time point: constant (~7 days, model-specific) | 0.0577 | 0.867 | 0.245 | 0.405 | 0.766
in vitro model: dormancy (butyrate + nitrate, low O2), time point: terminal (~4-5 doublings, model-specific) | 0.0343 | 0.976 | -0.12 | 0.486 | 0.153
in vitro model: standard 7H9 glycerol, time point: constant = terminal | 0.0547 | 0.876 | 0.183 | 0.187 | –
in vitro model: valerate, time point: constant (~7 days, model-specific) | 0.0698 | 0.865 | 0.0833 | -0.277 | –
in vitro model: valerate, time point: terminal (~4-5 doublings, model-specific) | 0.0324 | 0.921 | 0.0692 | -0.0139 | -0.406

CC(=O)NC[C@H]1CN(c2ccc(N3CCOCC3)c(F)c2)C(=O)O1 [linezolid] + NC(=O)c1cnccn1 [pyrazinamide] + CO[C@H]1/C=C/O[C@@]2(C)Oc3c(C)c(O)c4c(O)c(c(/C=N/N5CCN(C)CC5)c(O)c4c3C2=O)NC(=O)/C(C)=C\C=C\[C@H](C)[C@H](O)[C@@H](C)[C@@H](O)[C@@H](C)[C@H](OC(C)=O)[C@@H]1C [rifampicin]
Conditions | AUC25, [4] | Einf, [3] | GRinf, [5] | total FIC50, [1] | total FIC90, [2]
in vitro model: acidic pH 5.7, time point: constant (~7 days, model-specific) | 0.0897 | 0.883 | -0.255 | 0.175 | –
in vitro model: acidic pH 5.7, time point: terminal (~4-5 doublings, model-specific) | 0.0731 | 0.986 | -0.249 | 0.189 | –
in vitro model: intracellular J774, time point: constant = terminal | – | 0.953 | -0.411 | – | -0.0717

Conditions | AUC25, [4] | Einf, [3] | GRinf, [5] | total FIC50, [1] | total FIC90, [2]
in vitro model: butyrate, time point: constant (~7 days, model-specific) | 0.0912 | 0.889 | 0.0887 | -0.0235 | 0.328
in vitro model: butyrate, time point: terminal (~4-5 doublings, model-specific) | 0.075 | 0.94 | 0.0909 | -0.114 | -0.413
in vitro model: cholesterol 0.05 mM, time point: constant (~7 days, model-specific) | 0.141 | 0.702 | -0.117 | – | –
in vitro model: cholesterol 0.05 mM, time point: terminal (~4-5 doublings, model-specific) | 0.127 | 0.929 | -0.289 | 0.713 | –
in vitro model: cholesterol-high 0.2 mM, time point: constant (~7 days, model-specific) | 0.116 | 0.926 | -0.72 | 0.321 | –
in vitro model: cholesterol-high 0.2 mM, time point: terminal (~4-5 doublings, model-specific) | 0.104 | 0.995 | -0.826 | 0.598 | 0.554
in vitro model: dormancy (butyrate + nitrate, low O2), time point: constant (~7 days, model-specific) | 0.0758 | 0.893 | 0.203 | 0.486 | 0.378
in vitro model: dormancy (butyrate + nitrate, low O2), time point: terminal (~4-5 doublings, model-specific) | 0.0314 | 0.972 | -0.277 | 0.208 | -0.126
in vitro model: standard 7H9 glycerol, time point: constant = terminal | 0.0779 | 0.908 | 0.119 | -0.168 | –
in vitro model: valerate, time point: constant (~7 days, model-specific) | 0.0571 | 0.853 | 0.1 | 0.122 | –
in vitro model: valerate, time point: terminal (~4-5 doublings, model-specific) | 0.0305 | 0.925 | 0.0656 | 0.211 | -0.35

CC(=O)NC[C@H]1CN(c2ccc(N3CCOCC3)c(F)c2)C(=O)O1 [linezolid] + O=[N+]([O-])c1cn2c(n1)OC[C@@H](OCc1ccc(OC(F)(F)F)cc1)C2 [pretomanid] + CO[C@H]1/C=C/O[C@@]2(C)Oc3c(C)c(O)c4c(O)c(c(/C=N/N5CCN(C6CCCC6)CC5)c(O)c4c3C2=O)NC(=O)/C(C)=C\C=C\[C@H](C)[C@H](O)[C@@H](C)[C@@H](O)[C@@H](C)[C@H](OC(C)=O)[C@@H]1C [rifapentine]
Conditions | AUC25, [4] | Einf, [3] | GRinf, [5] | total FIC50, [1] | total FIC90, [2]
in vitro model: acidic pH 5.7, time point: constant (~7 days, model-specific) | 0.0833 | 0.887 | 0.0321 | 0.893 | –
in vitro model: acidic pH 5.7, time point: terminal (~4-5 doublings, model-specific) | 0.0609 | 0.978 | 0.00722 | 0.838 | 0.632
in vitro model: intracellular J774, time point: constant = terminal | – | 0.953 | -0.276 | – | 0.646

Conditions | AUC25, [4] | Einf, [3] | GRinf, [5] | total FIC50, [1] | total FIC90, [2]
in vitro model: butyrate, time point: constant (~7 days, model-specific) | 0.0937 | 0.91 | -0.0425 | 0.403 | 0.09
in vitro model: butyrate, time point: terminal (~4-5 doublings, model-specific) | 0.0716 | 0.955 | 0.0296 | 0.296 | 0.336
in vitro model: cholesterol 0.05 mM, time point: constant (~7 days, model-specific) | 0.142 | 0.677 | -0.167 | 0.533 | –
in vitro model: cholesterol 0.05 mM, time point: terminal (~4-5 doublings, model-specific) | 0.127 | 0.89 | -0.198 | 0.278 | 0.6
in vitro model: cholesterol-high 0.2 mM, time point: constant (~7 days, model-specific) | 0.0858 | 0.912 | -0.159 | 0.139 | 0.124
in vitro model: cholesterol-high 0.2 mM, time point: terminal (~4-5 doublings, model-specific) | 0.095 | 1 | -0.71 | 0.348 | 0.313
in vitro model: dormancy (butyrate + nitrate, low O2), time point: constant (~7 days, model-specific) | 0.0497 | 0.894 | 0.223 | 0.906 | 0.707
in vitro model: dormancy (butyrate + nitrate, low O2), time point: terminal (~4-5 doublings, model-specific) | 0.0403 | 0.979 | -0.0764 | 0.858 | 0.899
in vitro model: standard 7H9 glycerol, time point: constant = terminal | 0.0904 | 0.932 | -0.132 | 0.424 | 0.754
in vitro model: valerate, time point: constant (~7 days, model-specific) | 0.159 | 0.913 | -0.446 | -1.08 | –
in vitro model: valerate, time point: terminal (~4-5 doublings, model-specific) | 0.125 | 0.966 | -0.15 | -0.336 | 1.3

Reference: the supplement of paper PMC8617591
